The first assay has as its target T1, MAGL (Homo sapiens, UniProt Q99685).
T1 sequence (Q99685 1-303): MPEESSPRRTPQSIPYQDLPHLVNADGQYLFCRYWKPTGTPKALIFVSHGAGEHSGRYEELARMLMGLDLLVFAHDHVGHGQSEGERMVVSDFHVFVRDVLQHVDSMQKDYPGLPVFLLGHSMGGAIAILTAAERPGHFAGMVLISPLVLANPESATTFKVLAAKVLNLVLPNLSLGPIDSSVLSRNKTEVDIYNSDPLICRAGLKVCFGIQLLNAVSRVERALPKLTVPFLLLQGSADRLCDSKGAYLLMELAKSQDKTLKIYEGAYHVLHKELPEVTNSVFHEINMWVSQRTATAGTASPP
Kind of assay: MAGL inhibition, Table 1 values with no assay marker (2-AG or 4-NPA assay not stated). Type of assay: biochemical.
Conditions: not given
Here is the method:
Compounds were profiled for MAGL inhibitory activity by measuring the enzymatic activity of MAGL by following the hydrolysis of 4-nitrophenylacetate resulting in 4-nitrophenol, which absorbs at 405-412 nm (G. G. Muccioli, G. Labar, D. M. Lambert, Chem. Bio. Chem. 2008, 9, 2704-2710). This assay is hereinafter abbreviated “4-NPA assay”.
The 4-NPA assay was carried out in 384 well assay plates (black with clear bottom, non-binding surface treated, Corning Ref. 3655) in a total volume of 40 μL. Compound dilutions were made in 100% DMSO (VWR Chemicals 23500.297) in a polypropylene plate in 3-fold dilution steps to give a final concentration range in the assay from 25 μM to 1.7 nM. 1 μL compound dilutions (100% DMSO) were added to 19 μL MAGL (recombinant wild-type) in assay buffer (50 mM TRIS (GIBCO, 15567-027), 1 mM EDTA (Fluka, 03690-100 ml)). The plate was shaked for 1 min at 2000 rpm (Variomag Teleshake) and then incubated for 15 min at RT. To start the reaction, 20 μL 4-Nitrophenylacetate (Sigma N-8130) in assay buffer with 6% EtOH was added. The final concentrations in the assay were 1 nM MAGL and 300 μM 4-Nitrophenylacetate. After shaking (1 min, 2000 rpm) and 5 min incubation at RT, the absorbance at 405 nm was measured for a first time (Molecular Devices, SpectraMax Paradigm). A second measurement was then done after incubation for 80 min at RT. From the two measurements, the slope was calculated by subtracting the first from the second measurement.
(§1) Alternatively, compounds were profiled for MAGL inhibitory activity by determining the enzymatic activity by following the hydrolysis of the natural substrate 2-arachidonoylglycerol resulting in arachidonic acid, which can be followed by mass spectrometry. This assay is hereinafter abbreviated “2-AG assay”.
(§2) The 2-AG assay was carried out in 384 well assay plates (PP, Greiner Cat #784201) in a total volume of 20 μL. Compound dilutions were made in 100% DMSO (VWR Chemicals 23500.297) in a polypropylene plate in 3-fold dilution steps to give a final concentration range in the assay from 12.5 μM to […]. 0.25 μL compound dilutions (100% DMSO) were added to 9 μL MAGL in assay buffer (50 mM TRIS (GIBCO, 15567-027), 1 mM EDTA (Fluka, 03690-100 ml), 0.01% (v/v) Tween. After shaking, the plate was incubated for 15 min at RT. To start the reaction, 10 μL 2-arachidonoylglycerol in assay buffer was added. The final concentrations in the assay was […] and 8 μM 2-arachidonoylglycerol. After shaking and 30 min incubation at RT, the reaction was quenched by the addition of 40 μL of acetonitrile containing 4 μM of d8-arachidonic acid. The amount of arachidonic acid was traced by an online SPE system (Agilent Rapidfire) coupled to a triple quadrupole mass spectrometer (Agilent 6460). A C18 SPE cartridge (G9205A) was used in an acetonitrile/water liquid setup. The mass spectrometer was operated in negative electrospray mode following the mass transitions 303.1→259.1 for arachidonic acid and 311.1→267.0 for d8-arachidonic acid. The activity of the compounds was calculated based on the ratio of intensities [arachidonic acid/d8-arachidonic acid].
With `O=C1CO[C@H]2CCN(C(=O)N3CC4(CC(COc5ccc(F)cc5Cl)C4)C3)C[C@H]2N1` [Example 54, (4aR,8aS)-6-(6-((2-chloro-4-fluorophenoxy)methyl)-2-azaspiro[3.3]heptane-2-carbonyl)hexahydro-2H-pyrido[4,3-b][1,4]oxazin-3(4H)-one], the IC50 (usually the concentration that inhibits the measured activity by half) worked out at 1.46 nM.
For `O=C1CO[C@H]2CCN(C(=O)N3CC4(CC(Cc5ccc(F)cc5F)C4)C3)C[C@H]2N1` [Example 51, (4aR,8aS)-6-(6-(2,4-difluorobenzyl)-2-azaspiro[3.3]heptane-2-carbonyl)hexahdyro-2H-pyrido[4,3-b][1,4]oxazin-3(4H)-one], half-maximal inhibition (IC50) required 0.17 nM.
The same measure, in the same setting: as for `O=C1CO[C@H]2CCN(C(=O)N3CC4(C3)CN(S(=O)(=O)c3ccc(F)cc3C(F)(F)F)C4)C[C@H]2N1` [Example 66, (4aR,8aS)-6-(6-((4-fluoro-2-(trifluoromethyl)phenyl)sulfonyl)-2,6-diazaspiro[3.3]heptane-2-carbonyl)hexahydro-2H-pyrido[4,3-b][1,4]oxazin-3(4H)-one], the figure is 195 nM.

In a further assay the target is T1, MAGL. Nature of the assay: 2-AG assay: MAGL hydrolysis of 2-arachidonoylglycerol to arachidonic acid, followed by mass spectrometry. Type of assay: biochemical. The note with it: footnote [a]: measured in 2-AG assay. On the procedure: as §1, §2
`CN([C@H]1COC2(CCN(C(=O)N3CC[C@@H]4OCC(=O)N[C@@H]4C3)CC2)C1)S(=O)(=O)c1ccccc1` [Example 30, N-Methyl-N-((R)-8-((4aR,8aS)-3-oxooctahydro-2H-pyrido[4,3-b][1,4]oxazine-6-carbonyl)-1-oxa-8-azaspiro[4.5]decan-3-yl)benzenesulfonamide] yielded an IC50 of 49.3 nM.
As for `O=C1CO[C@H]2CCN(C(=O)N3CC4(CC(Oc5ccc(F)cc5F)C4)C3)C[C@H]2N1` [Example 8, (4aR,8aS)-6-(6-(2,4-Difluorophenoxy)-2-azaspiro[3.3]heptane-2-carbonyl)hexahydro-2H-pyrido[4,3-b][1,4]oxazin-3(4H)-one], the 50% inhibitory concentration (IC50) was 10.7 nM.
Still for that read-out and setting: with `O=C1CO[C@H]2CCN(C(=O)N3CCC4(CC3)CC(Oc3ccc(F)cc3Cl)C4)C[C@H]2N1` [Example 42, (4aR,8aS)-6-[2-(2-Chloro-4-fluoro-phenoxy)-7-azaspiro[3.5]nonane-7-carbonyl]-4,4a,5,7,8,8a-hexahydropyrido[4,3-b][1,4]oxazin-3-one] the figure was 2.1 nM.
Same read-out and setting: as for `O=C1CO[C@H]2CCN(C(=O)N3CCC4(CC3)CC(NCc3ccc(F)cc3Cl)CO4)C[C@H]2N1` (single isomer, unassigned) [Example 35], the figure is 182 nM.
The same measure, in the same setting: with `O=C1CO[C@H]2CCN(C(=O)N3CCC4(CC3)CN(S(=O)(=O)c3ccc(C(F)(F)F)cc3)C4)C[C@H]2N1` [Example 37, (4aR,8aS)-6-(2-((4-(Trifluoromethyl)phenyl)sulfonyl)-2,7-diazaspiro[3.5]nonane-7-carbonyl)hexahydro-2H-pyrido[4,3-b][1,4]oxazin-3(4H)-one] the figure was 389 nM.
With `O=C1CO[C@H]2CCN(C(=O)N3CC4(C3)CN(S(=O)(=O)c3ccc(C(F)(F)F)cc3F)C4)C[C@H]2N1` [Example 17, (4aR,8aS)-6-(6-((2-Fluoro-4-(trifluoromethyl)phenyl)sulfonyl)-2,6-diazaspiro[3.3]heptane-2-carbonyl)hexahydro-2H-pyrido[4,3-b][1,4]oxazin-3(4H)-one], half-maximal inhibition (IC50) was put at 768 nM.
Take `O=C1CO[C@H]2CCN(C(=O)N3CC4(CC(Oc5ccc(F)cc5Cl)C4)C3)C[C@H]2N1` [Example 1, (4aR,8aS)-6-(6-(2-Chloro-4-fluorophenoxy)-2-azaspiro[3.3]heptane-2-carbonyl)hexahydro-2H-pyrido[4,3-b][1,4]oxazin-3(4H)-one]: the IC50 was 4.5 nM.
Same read-out and setting: with `O=C1CO[C@H]2CCN(C(=O)N3CC4(CC(Oc5ccc(OC(F)(F)F)cc5F)C4)C3)C[C@H]2N1` [Example 4, (4aR,8aS)-6-(6-(2-Fluoro-4-(trifluoromethoxy)phenoxy)-2-azaspiro[3.3]heptane-2-carbonyl)hexahydro-2H-pyrido[4,3-b][1,4]oxazin-3(4H)-one] the figure was 3 nM; with `O=C1CO[C@H]2CCN(C(=O)N3CCC4(CC3)CN(Cc3ccc(C(F)(F)F)cc3F)C4)C[C@H]2N1` [Example 13, (4aR,8aS)-6-(2-(2-Fluoro-4-(trifluoromethyl)benzyl)-2,7-diazaspiro[3.5]nonane-7-carbonyl)hexahydro-2H-pyrido[4,3-b][1,4]oxazin-3(4H)-one], 76.4 nM; with `O=C1CO[C@H]2CCN(C(=O)N3CCC4(CC3)C[C@@H](NS(=O)(=O)c3ccccc3)CO4)C[C@H]2N1` (mixture of isomers) [Example 18, rac-(4aR,8aS)—N—((R)-8-(3-oxooctahydro-2H-pyrido[4,3-b][1,4]oxazine-6-carbonyl)-1-oxa-8-azaspiro[4.5]decan-3-yl)benzenesulfonamide], 316 nM.
On the same count and under the same terms, with `O=C1CO[C@H]2CCN(C(=O)N3CC4(CC(Oc5ccc(OC(F)(F)F)cc5Cl)C4)C3)C[C@H]2N1` [Example 5, (4aR,8aS)-6-(6-(2-Chloro-4-(trifluoromethoxy)phenoxy)-2-azaspiro[3.3]heptane-2-carbonyl)hexahydro-2H-pyrido[4,3-b][1,4]oxazin-3(4H)-one] the figure was 0.6 nM.
On the same count and under the same terms, as for `O=C1CO[C@H]2CCN(C(=O)N3CC4(C3)CN(S(=O)(=O)c3ccc(F)cc3Cl)C4)C[C@H]2N1` [Example 16, (4aR,8aS)-6-(6-((2-Chloro-4-fluorophenyl)sulfonyl)-2,6-diazaspiro[3.3]heptane-2-carbonyl)hexahydro-2H-pyrido[4,3-b][1,4]oxazin-3(4H)-one], the figure is 228 nM; as for `O=C1CO[C@H]2CCN(C(=O)N3CCC4(CC3)CC(NS(=O)(=O)c3ccc(C(F)(F)F)cc3)CO4)C[C@H]2N1` (stereo in doubt) [Example 29, N-((S)-8-((4aR,8aS)-3-Oxooctahydro-2H-pyrido[4,3-b][1,4]oxazine-6-carbonyl)-1-oxa-8-azaspiro[4.5]decan-3-yl)-4-(trifluoromethyl)benzenesulfonamide], 47.5 nM.
Molecule `COc1ccc(C(F)(F)F)cc1OC1CC2(C1)CN(C(=O)N1CC[C@@H]3OCC(=O)N[C@@H]3C1)C2` [Example 6, (4aR,8aS)-6-(6-(2-Methoxy-5-(trifluoromethyl)phenoxy)-2-azaspiro[3.3]heptane-2-carbonyl)hexahydro-2H-pyrido[4,3-b][1,4]oxazin-3(4H)-one] came in with an IC50 of 2.8 nM.
The same measure, in the same setting: as for `O=C1CO[C@H]2CCN(C(=O)N3CC4(CC(Oc5ccc(C(F)(F)F)cc5)C4)C3)C[C@H]2N1` [Example 2, (4aR,8aS)-6-(6-(4-(Trifluoromethyl)phenoxy)-2-azaspiro[3.3]heptane-2-carbonyl)hexahydro-2H-pyrido[4,3-b][1,4]oxazin-3(4H)-one], the figure is 5 nM; as for `CN(Cc1ccc(F)cc1Cl)C1COC2(CCN(C(=O)N3CC[C@@H]4OCC(=O)N[C@@H]4C3)CC2)C1` (single isomer, unassigned) [Example 34], 133 nM; as for `O=C1CO[C@H]2CCN(C(=O)N3CC4(CC(Oc5cc(F)cc(C(F)(F)F)c5)C4)C3)C[C@H]2N1` [Example 9, (4aR,8aS)-6-(6-(3-Fluoro-5-(trifluoromethyl)phenoxy)-2-azaspiro[3.3]heptane-2-carbonyl)hexahydro-2H-pyrido[4,3-b][1,4]oxazin-3(4H)-one], 12.5 nM.

These data come from patent US12577257B2, “Heterocyclic compounds” (Hoffmann-La Roche Inc., priority 2018, dated 2026).
